Reference: patent publication US20220002268A1, “NOVEL HETEROARYL-TRIAZOLE AND HETEROARYL-TETRAZOLE COMPOUNDS AS PESTICIDES” (Bayer Aktiengesellschaft, priority 2019, published 2022)

Assays:
[1] = tested on: Tetranychus urticae; test: Tetranychus urticae spray test OP-resistant; assay type: in vivo; settings: 144 h, after 6 days
Experimental: Tetranychus urticae—Spray Test OP-Resistant Solvent: 78.0 parts by weight acetone • 1.5 parts by weight dimethylformamide Emulsifier: alkylarylpolyglycol ether
(§1) To produce a suitable preparation of active compound, 1 part by weight of active compound is mixed with the stated amount of solvents and is diluted with water, containing an emulsifier concentration of 1000 ppm, to the desired concentration. Further test concentrations are prepared by dilution with emulsifier containing water.
French bean (Phaseolus vulgaris) leaf disks infected with all instars of the two spotted spidermite (Tetranychus urticae), are sprayed with a preparation of the active ingredient of the desired concentration.
After 6 days mortality in % is determined. 100% means all spider mites have been killed and 0% means none of the spider mites have been killed.

[2] = tested on: Spodoptera frugiperda; test: Spodoptera frugiperda spray test; assay type: in vivo; settings: 168 h, after 7 days
Experimental: Suodontera frugiuerda—Spray Test Solvent: 78.0 parts by weight acetone • 1.5 parts by weight dimethylformamide Emulsifier: alkylarylpolyglycol ether
as §1
Maize (Zea mays) leaf sections are sprayed with a preparation of the active ingredient of the desired concentration. Once dry, the leaf sections are infested with fall armyworm larvae (Spodoptera frugiperda).
After 7 days mortality in % is determined. 100% means all caterpillars have been killed and 0% means none of the caterpillars have been killed.

[3] = tested on: Myzus persicae; test: Myzus persicae oral test; assay type: in vivo; settings: 120 h, after 5 days
Experimental: Myzus persicae—Oral Test Solvent: 100 parts by weight acetone
(§2) To produce a suitable preparation of active compound, 1 part by weight of active compound is mixed with the stated amount of solvent, and the concentrate is diluted with water to the desired concentration.
50 μl compound solution is filled in microtiter plates and 150 μl IPL41 insect medium (33%+15% sugar) is added to obtain a total volume of 200 μl per well. Afterwards the plates are sealed with parafilm through which a mixed population of the green peach aphid (Myzus persicae) can suck on the compound preparation.
After 5 days mortality in % is determined. 100% means all aphids have been killed and 0% means none of the aphids have been killed.

[4] = tested on: Ctenocephalides felis; test: Ctenocephalides felis oral test; assay type: in vivo; settings: 48 h, 100 ppm in cattle blood, after 2 days
Experimental: Ctenocephalides felis—Oral Test Solvent: dimethyl sulfoxide
To produce a suitable preparation of active compound, 10 mg of active compound are dissolved in 0.5 ml solvent, and the concentrate is diluted with cattle blood to the desired concentration.
Approximately 20 adult unfed cat fleas (Ctenocephalides felis) are placed in flea chambers. The blood chamber, sealed with parafilm on the bottom, are filled with cattle blood supplied with compound solution and placed on the gauze covered top of the flea chamber, so that the fleas are able to suck the blood. The blood chamber is heated to 37° C. whereas the flea chamber is kept at room temperature.
After 2 days mortality in % is determined. 100% means all the fleas have been killed; 0% means none of the fleas have been killed.

[5] = tested on: Boophilus microplus; test: Boophilus microplus injection test; assay type: in vivo; settings: Rhipicephalus microplus, 168 h; 20 gg/animal, injection into abdomen, after 7 days; read-out: efficacy (infertile eggs)
Experimental: Boophilus microplus—Injection Test Solvent: dimethyl sulfoxide To produce a suitable preparation of active compound, 10 mg of active compound are dissolved in 0.5 ml solvent, and the concentrate is diluted with solvent to the desired concentration. Five adult engorged female ticks (Boophilus microplus) are injected with 1 μl compound solution into the abdomen. The ticks are transferred into replica plates and incubated in a climate chamber. After 7 days egg deposition of fertile eggs is monitored. Eggs where fertility is not visible are stored in a climate chamber till hatching after about 42 days. An efficacy of 100% means all eggs are infertile; 0% means all eggs are fertile.

[6] = tested on: Diabrotica balteata; test: Diabrotica balteata spray test; assay type: in vivo; settings: 168 h, 160 gg/well, after 7 days, read-out: efficacy (seedlings grown)
Experimental: Diabrotica balteata—Spray Test Solvent: 78.0 parts by weight of acetone • • 1.5 parts by weight of dimethylformamide Emulsifier: alkylarylpolyglycol ether
as §1, with “solvent,” for “solvents”, “and the concentrate” for “and”
Soaked wheat seeds (Triticum aestivum) are placed in a multiple well plate filled with agar and some water and are incubated for 1 day to germinate (5 seeds per well). The germinated wheat seeds are sprayed with a test solution containing the desired concentration of the active ingredient. Afterwards each unit is infected with 10-20 larvae of the banded cucumber beetle (Diabrotica balteata).
After 7 days efficacy in % is determined. 100% means all the seedlings have grown up like in the untreated, uninfected control; 0% means none of the seedlings have grown.

[7] = tested on: Meloidogyne incognita; test: Meloidogyne incognita test; assay type: in vivo; settings: 20 ppm, after 14 days
Experimental: Meloidogyne incognita—Test Solvent: 125.0 parts by weight of acetone
as §2
Vessels are filled with sand, a solution of the active ingredient, a suspension containing eggs and larvae of the southern root-knot nematode (Meloidogyne incognita) and salad seeds. The salad seeds germinate and the seedlings grow. Galls develop in the roots.
After 14 days the nematicidal activity is determined on the basis of the percentage of gall formation. 100% means no galls were found and 0% means the number of galls found on the roots of the treated plants was equal to that in untreated control plants.

[8] = tested on: Phaedon cochleariae; test: Phaedon cochleariae spray test; assay type: in vivo; settings: 168 h, after 7 days
Experimental: Phaedon cochleariae—Spray Test Solvent: 78.0 parts by weight of acetone • • 1.5 parts by weight of dimethylformamide Emulsifier: alkylarylpolyglycol ether
as §1
Chinese cabbage (Brassica pekinensis) leaf disks are sprayed with a preparation of the active ingredient of the desired concentration. Once dry, the leaf disks are infested with mustard beetle larvae (Phaedon cochleariae).
After 7 days mortality in % is determined. 100% means all beetle larvae have been killed and 0% means none of the beetle larvae have been killed.

[9] = tested on: Aedes aegypti strain MONHEIM; test: Aedes aegypti test (AEDSAE surface treatment & contact assay); assay type: in vivo; settings: surface concentration 20 mg/m^2, 30 minutes exposure, 24 hours after contact, read-out: efficacy (mortality)
Experimental: Aedes aegyti Test (AEDSAE Surface Treatment & Contact Assay) Solvent: Aceton+2000 ppm rapeseed oil methyl ester (RME)
In order to produce a sufficient, active ingredient containing solution it is necessary to solve the test compound in the solvent-mix (acetone at 2 mg/ml/RME 2000 ppm). This solution is pipetted onto a glazed tile and after evaporation of the acetone, adult mosquitoes of the species Aedes aegypti strain MONHEIM are placed onto the dried surface. The exposure time is 30 minutes.
Mortality in percent (%) is determined 24 hours after contact to the treated surface. 100% mortality means that all tested insects are dead, whereas 0% means that no insect died.

[10] = tested on: Nilaparvata lugens; test: Nilaparvata lugens spray test; assay type: in vivo; settings: 96 h, after 4 days
Experimental: Nilaparvata lugens—Spray Test Solvent: 78.0 parts by weight of acetone • • 1.5 parts by weight of dimethylformamide Emulsifier: alkylarylpolyglycol ether
as §1
Rice plants (Oryza sativa) are sprayed with a preparation of the active ingredient of the desired concentration and the plants are infested with the brown planthopper (Nilaparvata lugens).
After 4 days mortality in % is determined. 100% means all planthoppers have been killed and 0% means none of the planthoppers have been killed.

[11] = tested on: Nezara viridula; test: Nezara viridula spray test; assay type: in vivo; settings: 96 h, after 4 days
Experimental: Nezara viridula—Spray Test Solvent: 78.0 parts by weight of acetone • • 1.5 parts by weight of dimethylformamide Emulsifier: alkylarylpolyglycol ether
as §1, with “solvent,” for “solvents”, “and the concentrate” for “and”
Barley plants (Hordeum vulgare) infested with larvae of the southern green stink bug (Nezara viridula) are sprayed with a test solution containing the desired concentration of the active ingredient.
After 4 days mortality in % is determined. 100% means all the stink bugs have been killed; 0% means none of the stink bugs have been killed.

[12] = log P by HPLC on reversed phase, acidic range; assay type: physicochemical; settings: reversed phase HPLC column, LC-UV, 0.1% formic acid in water and acetonitrile
Experimental: (§3) Measurement of log P values was performed according to EEC directive 79/831 Annex V.A8 by HPLC (High Performance Liquid Chromatography) on reversed phase columns with the following methods. […] Calibration was done with straight-chain alkan-2-ones (with 3 to 16 carbon atoms) with known log P values (measurement of log P values using retention times with linear interpolation between successive alkanones). Lambda-max-values were determined using UV-spectra from 200 nm to 400 nm and the peak values of the chromatographic signals.

[13] = log P by HPLC on reversed phase, neutral range; assay type: physicochemical; settings: reversed phase HPLC column, LC-UV, 0.001 molar ammonium acetate solution in water and acetonitrile
Experimental: as §3, with “methods. Instrument(s): Agilent 1100 LC system, Agilent MSD system, HTS PAL; Waters IClass Acquity UPLC, SQD2 (MS), PDA (UV).” for “methods.”

Structure (SMILES): O=C(NC1(c2ncnn2-c2ncccn2)CC1)c1cc(Cl)cc(OC(F)(F)F)c1 [Example I-016]
- mortality at 500 g/ha [1]: 90%

Structure (SMILES): O=C(c1cc(Cl)cc(C(F)(F)F)c1)N(Cc1ncnn1-c1ncccn1)CC1CC1 [Example I-001, 3-Chloro-N-(cyclopropylmethyl)-N-{[1-(pyrimidin-2-yl)-1H-1,2,4-triazol-5-yl]methyl}-5-(trifluoromethyl)benzamide]
- mortality at 500 g/ha [2]: 100%
- mortality at 20 ppm [3]: 100%
- mortality at 100 ppm [4]: 95%
- pest or weed control at 0.02 mg [5]: 100%
- pest or weed control at 160 µg/well [6]: 100%
- nematicidal activity (gall formation) [7]: 90%
- mortality at 500 g/ha [8]: 100%

Structure (SMILES): O=C(c1cc(C(F)(F)F)cc(C(F)(F)F)c1)N(Cc1ncnn1-c1ncccn1)CC1CC1 [Example I-004]
- mortality at 500 g/ha [2]: 100%
- mortality at 20 mg/m2 [9]: 85 to 100%
- mortality at 500 g/ha [10]: 100%
- mortality at 20 ppm [3]: 100%
- mortality at 100 ppm [4]: 100%
- pest or weed control at 0.02 mg [5]: 100%
- mortality at 500 g/ha [11]: 100%
- pest or weed control at 160 µg/well [6]: 100%
- mortality at 500 g/ha [8]: 100%

Structure (SMILES): c1cnc(-n2ncnc2CNCC2CC2)nc1 [a-001, 1-cyclopropyl-N-{[1-(pyrimidin-2-yl)-1H-1,2,4-triazol-5-yl]methyl}methanamine]
- chromatographic logP [12]: 0.83
- chromatographic logP [13]: 0.83
